Test results taken from patent US20100210816A1, “NMDAR Biomarkers for Diagnosing and Treating Cerebral Ischemia” (priority 2006, published 2010).

What was measured:
[1] = patients with TIA or minor CVA; cited from earlier work
[2] = TIA rate over 24 months of aspirin treatment follow up in individuals with DM/AS; type: in vivo, human; details: 24 months follow up
Method: (§1) In this study, serial measurements of blood levels of NR2 antibodies in an out-patient setting in individuals with diabetes mellitus (DM) and atherosclerosis (AS) who are at high risk for subsequent CVA were evaluated to establish whether this biomarker can be used to monitor the efficacy of aspirin treatment. Every person who participated in the study underwent neurological examination and computed tomography (CT) of the brain. The age of the 33 persons (17 male/16 female) ranged from 47-64 yrs (mean 55.7 yrs). Patients with documented 5-10 year history of DM/AS and normal neurological examination without a previous history of neurological event such as transient ischemic attack (TIA), or prolonged reversible ischemic neurological deficit or stroke were observed. Based on laboratory and clinical testing, all participants were at borderline glucose intolerance, with blood glucose levels of 119 to 132 mg/dL, and had complaints on fatigue, low concentration of attention, and numbness in digits of left or right hand.
Out of 22 individuals, 10 (6 male/4 female) were randomly assigned to a placebo group and the rest used daily over-counter aspirin in a dose of 325 mg which formed group 1 (Table 3). […]
NR2 antibodies were detected at a base level for each group before treatment was initiated (0 mo.) and then each following 6 months for two years. […]

[3] = system: NR2 antibodies; assay: Serial blood NR2 antibody levels over 24 months of aspirin treatment follow up in individuals with DM/AS at high risk for CVA; type: in vivo, human; details: for NR2 antibodies, 6 mo.: 6 months; for NR2 antibodies, 0 mo.: base level before treatment
Method: as §1
Out of 22 individuals, 10 (6 male/4 female) were randomly assigned to a placebo group and the rest used daily over-counter aspirin in a dose of 325 mg which formed group 1 (Table 3). None of people of group 1 developed the resistance to aspirin.
NR2 antibodies were detected at a base level for each group before treatment was initiated (0 mo.) and then each following 6 months for two years. […] A TIA event was documented in 1 patient from the placebo group. […] By the end of the study at 24 mo., two out of 9 persons suffered a TIA which developed into an acute ischemic stroke in one patient.

[4] = large meta-analysis, BMJ 1994; cited from earlier work
[5] = acute ischemic stroke; non-significant reduction; 95% CI: 0.41, 1.02; cited from earlier work
[6] = system: NR2 antibodies; assay: NR2 antibody monitoring in three patients (minor CVA, TIA, ischemic stroke) given oral Trental; type: in vivo, human
Method: The first case was a non-smoker who had previously undergone valve replacement surgery in 1987 and had received a coronary artery stent in 2002. The patient had been treated with coumudin since the first surgery. NR2 antibodies measured at base line were […] the 2 ng/ml cutoff. (FIG. 1). […] At the same time, the patient had complaints on chronic fatigue and numbness in the 4th and 5th digits of their left arm lasting quite a long period of time. […] Antibodies continued to decrease up to 6th mo. after treatment was initiated and remained below the cut off level more than 1 year after therapy.
The second patient was a apparently healthy person. Their blood assay for NR2 antibodies was performed initially on a voluntary basis as a healthy control. […] The patient used Plavix and Lipitor on daily basis as well.
The third patient was an non-smoker who had suffered ischemic stroke on May 28-29, 2002 after angioplasty. They had receiving coumadin, eardizem, atenolol, hytrin, lasix, and guaifinex when they entered the study.

[7] = Group 1 (not aspirin-resistant, N=12), aspirin 325 mg daily
[8] = Group 2 (resistant to aspirin, N=9), aspirin 325 mg/day

Q: For `CC(=O)Oc1ccccc1C(=O)O` [aspirin], which “Reduction of the risk of TIA” value [1] is on record?
A: 20%

Q: And the TIA rate [2, 7]?
A: 0

Q: And the TIA rate [2, 8]?
A: 2/9

Q: And the “NR2 antibodies, 6 mo.” value [3, 7]?
A: 2.51 ± 0.28 ng/mL

Q: What about the “NR2 antibodies, 0 mo.” value [3, 7] of the same molecule?
A: 3.05 ± 0.21 ng/mL

Q: And the “Change of NR2 antibody levels” value ([3]; Group 1, aspirin 325 mg daily, below cut off of 2 ng/ml, no CVA consequences)?
A: significantly reduced

Q: And the “NR2 antibodies, 6 mo.” value [3, 8]?
A: 3.22 ± 0.30 ng/mL

Q: What about the “NR2 antibodies, 0 mo.” value [3, 8] of the same molecule?
A: 2.87 ± 0.11 ng/mL

Q: And the “Change of NR2 antibody levels” value ([3]; Group 2, patients resistant to aspirin, any time during the study)?
A: no improvement in NR2 antibodies levels

Q: And the “Reduction of incidence of stroke, myocardial infarction, or vascular death” value [4]?
A: 25%

Q: Which results are given for `CC(=O)CCCCn1c(=O)c2c(ncn2C)n(C)c1=O` [Trental, pentoxifylline]?
A: Odds ratio of early death [5]: 0.64; Effect on level of NR2 antibodies ([6]; person after TIA, oral 200 mg twice a day for 30 days, FIG. 2): reduced the level of NR2 antibodies to the control level of healthy individuals; Effect on level of NR2 antibodies ([6]; person after ischemic stroke, oral 200 mg x 3 times a day for 60 days, FIG. 3): reduced the level of NR2 antibodies to the cut off; Effect on level of NR2 antibodies ([6]; person, minor CVA, oral 200 mg twice a day for 30 days, FIG. 1): reduced the level of NR2 antibodies by the end of treatment
